Patent publication US20110105397A1, “METHOD FOR TREATING HEART FAILURE WITH STRESSCOPIN-LIKE PEPTIDES” (priority 2009, published 2011)

Tests used:
CRHR1 = molecular target: T1, CRHR1 (Homo sapiens, UniProt P34998); experiment: CRHR1 radioligand binding, [125I]-(Tyr0)-sauvagine; set-up: host or cells: cell membranes
T1 sequence (P34998 24-415): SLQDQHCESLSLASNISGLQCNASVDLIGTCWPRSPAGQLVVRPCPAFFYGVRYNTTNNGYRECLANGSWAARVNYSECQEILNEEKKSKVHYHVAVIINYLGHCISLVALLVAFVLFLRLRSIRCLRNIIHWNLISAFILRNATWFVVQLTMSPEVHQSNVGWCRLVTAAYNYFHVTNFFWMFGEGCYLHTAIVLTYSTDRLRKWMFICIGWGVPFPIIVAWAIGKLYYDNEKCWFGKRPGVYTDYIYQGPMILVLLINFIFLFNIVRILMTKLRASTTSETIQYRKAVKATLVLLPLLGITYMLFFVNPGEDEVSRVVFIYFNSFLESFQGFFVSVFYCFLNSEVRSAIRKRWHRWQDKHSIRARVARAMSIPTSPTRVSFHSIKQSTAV
Excerpt: The solution was then homogenized with a Polytron tissue grinder at a setting of 10 and 7×3 s (Brinkmann Instruments, Westbury, N.Y.). […] The bound radioactivity was separated by filtration using a Multiscreen Resist manifold (Millipore Corp., Billerica, Mass., U.S.A). The filters were washed three times with ice-cold PBS at pH 7.5 and radioactivity retained on the filters was quantified by its liquid scintillation measured by a TopCount counter (Packard BioScience, Boston, Mass., U.S.A). All experiments were performed in triplicate.

human CRHR2 = molecular target: T2, human CRHR2 (Homo sapiens, UniProt Q13324); experiment: CRHR2 radioligand binding, [125I]-anti-sauvagine-30, SK-N-MC membranes; conditions: for Ki / nH: CRHR2
T2 construct: expressed in transfected cells
T2 sequence (Q13324 1-411): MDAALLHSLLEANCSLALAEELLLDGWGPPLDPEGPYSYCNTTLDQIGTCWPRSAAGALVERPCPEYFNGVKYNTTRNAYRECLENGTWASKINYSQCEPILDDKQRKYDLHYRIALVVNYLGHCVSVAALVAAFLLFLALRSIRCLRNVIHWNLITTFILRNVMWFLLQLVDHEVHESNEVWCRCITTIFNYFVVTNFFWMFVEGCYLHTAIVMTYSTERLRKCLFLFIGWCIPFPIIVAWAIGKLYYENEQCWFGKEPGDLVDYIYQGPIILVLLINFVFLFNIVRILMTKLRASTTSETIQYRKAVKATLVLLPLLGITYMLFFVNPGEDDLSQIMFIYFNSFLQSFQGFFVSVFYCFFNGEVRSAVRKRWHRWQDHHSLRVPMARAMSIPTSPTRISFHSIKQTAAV
Method: The binding profile of h-SCP (SEQ ID NO:1) at CRHR2 was determined in radioligand binding studies in a membrane preparation of SK-N-MC cells stably transfected with human CRHR2 using [^125I]-anti-sauvagine-30 as the radiolabel. […] The solution was then homogenized with a Polytron tissue grinder at a setting of 10 and 7×3 s (Brinkmann Instruments, Westbury, N.Y.). […] The supernatant was re-centrifuged at 26,892×g for 25 min at 4° Celsius with the final pellet being re-suspended in assay buffer. […] For competition studies, cell membranes of […] volume were incubated with either 60 pM [^125I]-anti-sauvagine-30 in 50 μl volume for the CRHR2 assay or with)[^125I]-([…]-sauvagine for the CRHR1 assay in the presence of 15 μl of competing ligand for 120 min having a total volume of 150 μl. […] The bound radioactivity was separated by filtration using a Multiscreen Resist manifold (Millipore Corp., Billerica, Mass., U.S.A). The filters were washed three times with ice-cold PBS at pH 7.5 and radioactivity retained on the filters was quantified by its liquid scintillation measured by a TopCount counter (Packard BioScience, Boston, Mass., U.S.A). All experiments were performed in triplicate. Data from individual competition curves were expressed as the percentage of specific [^125I]-anti-sauvagine-30 or)[^125I]-([…]-sauvagine binding (B) within each experiment. […] The competition curve obtained with h-SCP (SEQ ID NO:1) was biphasic.

h-CRHR2b = molecular target: T3, h-CRHR2b (Homo sapiens, UniProt Q13324); conditions: h-CRHR2b transfected HEK-293 cells, approximated values from concentration response curves (Hsu et al., 2001); cited from earlier work
T3 sequence (Q13324 1-438 isoform Q13324-2): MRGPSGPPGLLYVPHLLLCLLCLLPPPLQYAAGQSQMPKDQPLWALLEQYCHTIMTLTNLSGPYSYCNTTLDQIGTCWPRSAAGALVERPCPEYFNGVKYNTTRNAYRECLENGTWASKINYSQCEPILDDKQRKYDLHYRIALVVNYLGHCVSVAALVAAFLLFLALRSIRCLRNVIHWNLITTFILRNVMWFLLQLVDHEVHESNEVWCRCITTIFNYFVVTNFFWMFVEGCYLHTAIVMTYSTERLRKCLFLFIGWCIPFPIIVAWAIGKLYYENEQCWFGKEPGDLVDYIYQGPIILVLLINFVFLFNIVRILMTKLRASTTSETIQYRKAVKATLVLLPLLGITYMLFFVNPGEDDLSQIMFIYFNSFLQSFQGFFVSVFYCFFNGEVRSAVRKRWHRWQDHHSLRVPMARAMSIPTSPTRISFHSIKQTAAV

Row | Ki (human CRHR2) [nM] | nH (human CRHR2) | Compound | nH (CRHR1) | Published pA50 (h-CRHR2b) | Ki (CRHR1) [nM] | competition curve / binding profile (human CRHR2; CRHR2, [125I]-anti-sauvagine-30) | IC50 (human CRHR2; biphasic competition curve, read-out: low pIC50 (low affinity receptor binding state) (converted)) [nM]
1 | 3.09 | 1.19 ± 0.14 | CC[C@H](C)[C@H](NC(=O)[C@H](CO)NC(=O)[C@H](CC(C)C)NC(=O)[C@@H]1CCCN1C(=O)[C@@H]1CCCN1C(=O)[C@H](CC(=O)O)NC(=O)[C@@H](N)CC(=O)O)C(=O)N[C@@H](CC(=O)O)C(=O)N[C@@H](CC(C)C)C(=O)N[C@H](C(=O)N[C@@H](Cc1ccccc1)C(=O)N[C@@H](Cc1c[nH]cn1)C(=O)N[C@@H](CC(C)C)C(=O)N[C@@H](CC(C)C)C(=O)N[C@@H](CCCNC(=N)N)C(=O)N[C@H](C(=O)N[C@@H](CC(C)C)C(=O)N[C@@H](CC(C)C)C(=O)N[C@@H](CCC(=O)O)C(=O)N[C@@H](CC(C)C)C(=O)N[C@@H](C)C(=O)N[C@@H](CCCNC(=N)N)C(=O)N[C@H](C(=O)N[C@@H](CCC(N)=O)C(=O)N[C@@H](CO)C(=O)N[C@@H](CCC(N)=O)C(=O)N[C@@H](CCCNC(=N)N)C(=O)N[C@@H](CCC(=O)O)C(=O)N[C@@H](CCCNC(=N)N)C(=O)N[C@@H](C)C(=O)N[C@@H](CCC(=O)O)C(=O)N[C@@H](CCC(N)=O)C(=O)N[C@@H](CC(N)=O)C(=O)N[C@@H](CCCNC(=N)N)C(=O)N[C@H](C(=O)N[C@H](C(=O)N[C@@H](Cc1ccccc1)C(=O)N[C@@H](CC(=O)O)C(=O)N[C@@H](CO)C(=O)N[C@H](C(N)=O)C(C)C)[C@@H](C)CC)[C@@H](C)CC)[C@@H](C)O)[C@@H](C)O)[C@@H](C)O [SEQ ID NO: 114, DDPPLSIDLTFHLLRTLLELARTQSQRERAEQNRIIFDSV-NH2] | 0.91 ± 0.27 | – | – | – | –
2 | 26.9 | 1.26 ± 0.14 | H-HPGSRIVLSLDVPIGLLQILLEQARARAAREQATTNARILARV-NH2 [SEQ ID NO: 117, HPGSRIVLSLDVPIGLLQILLEQARARAAREQATTNARILARV-NH2, reference compound] | – | ~9^4 | – | – | –

Row | Compound | Ki (human CRHR2) [nM] | nH (human CRHR2) | nH (CRHR1) | Published pA50 (h-CRHR2b) | Ki (CRHR1) [nM] | competition curve / binding profile (human CRHR2; CRHR2, [125I]-anti-sauvagine-30) | IC50 (human CRHR2; biphasic competition curve, read-out: low pIC50 (low affinity receptor binding state) (converted)) [nM]
3 | H-TKFTLSLDVPTNIMNLLFNIAKAKNLRAQAAANAHLMAQI-NH2 [SEQ ID NO: 1, TKFTLSLDVPTNIMNLLFNIAKAKNLRAQAAANAHLMAQI-NH2] | 1950 | 1.00 ± 0.04 | 1.16 ± 0.65 | ~9^4 | 25100 | biphasic | 251
